For 14 molecules, IC50 and CC50 results are on record in ChEMBL document CHEMBL3853342, “Design, synthesis and biological evaluation of novel benzo-α-pyrone containing piperazine derivatives as potential BRAFV600E inhibitors” (Bioorg Med Chem Lett, 2016).

Data set [1] is described as follows: Antiproliferative activity against human WM1361 cells assessed as cell growth inhibition after 24 hrs by MTT assay. Format: functional, cell-based. To be noted: WM1361, 24 h. On the technique in general: Tetrazolium dyes change colour on reduction, which living cells bring about.
In data set [2] the target is Serine/threonine-protein kinase B-raf (Homo sapiens, UniProt P15056, V600E). In words: Inhibition of human recombinant GST-tagged BRAF catalytic domain (416 to 766 residues) V600E mutant expressed in baculovirus expression system preincubated for 1 hr followed by human full length recombinant N-terminal His-tagged MEK1 substrate addition measured after 25 mins by gel electrophoresis method.
Chain of Serine/threonine-protein kinase B-raf (P15056 2-766 V600E limits assumed): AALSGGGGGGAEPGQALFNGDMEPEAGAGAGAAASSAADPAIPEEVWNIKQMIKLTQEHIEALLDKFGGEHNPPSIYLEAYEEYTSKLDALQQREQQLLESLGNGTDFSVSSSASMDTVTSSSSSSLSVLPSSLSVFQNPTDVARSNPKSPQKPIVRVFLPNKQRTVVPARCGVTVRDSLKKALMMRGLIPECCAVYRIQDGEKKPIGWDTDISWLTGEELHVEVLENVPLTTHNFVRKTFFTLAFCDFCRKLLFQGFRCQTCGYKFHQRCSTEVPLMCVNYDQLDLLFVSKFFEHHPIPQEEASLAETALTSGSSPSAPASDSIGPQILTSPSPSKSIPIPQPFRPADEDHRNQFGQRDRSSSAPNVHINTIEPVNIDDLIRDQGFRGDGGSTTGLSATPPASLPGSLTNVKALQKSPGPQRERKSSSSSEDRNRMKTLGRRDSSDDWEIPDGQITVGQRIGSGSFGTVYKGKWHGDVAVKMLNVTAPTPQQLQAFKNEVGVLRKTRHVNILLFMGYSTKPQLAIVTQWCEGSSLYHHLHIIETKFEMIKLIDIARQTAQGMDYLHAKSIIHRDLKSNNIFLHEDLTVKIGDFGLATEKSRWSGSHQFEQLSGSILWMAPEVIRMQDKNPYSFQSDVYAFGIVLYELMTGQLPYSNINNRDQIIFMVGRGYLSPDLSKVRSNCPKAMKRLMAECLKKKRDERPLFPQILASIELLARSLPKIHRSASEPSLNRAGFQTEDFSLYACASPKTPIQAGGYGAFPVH

Data set [3] can be described thus: Antiproliferative activity against human A375 cells assessed as cell growth inhibition after 24 hrs by MTT assay. Format: functional, cell-based. The settings on record: A-375, 24 h.
Data set [4] is described as follows: Cytotoxicity against human 293T cells assessed as cell growth inhibition after 24 hrs by MTT assay. Type of data set: toxicity, cell-based, HEK-293T.
The nature of data set [5]: Antiproliferative activity against human WM266.4 cells harboring BRAF V600E mutant assessed as cell growth inhibition after 24 hrs by MTT assay. To be noted: WM 266-4, 24 h. Type of data set: functional, cell-based.

As usually defined, the IC50 is the concentration that inhibits the measured activity by half. As usually defined, the CC50 is the concentration giving 50% cytotoxicity.

Consider `O=c1oc2ccccc2c(N2CCN(C(c3ccc(F)cc3)c3ccc(F)cc3)CC2)c1CO`, for which the IC50 is 29.4 µM in data set [1], 0.68 µM in data set [2], 3.16 µM in data set [3] and 2.57 µM in data set [5]. The 50% cytotoxic concentration (CC50) at 24 h in data set [4] was above 50 µM.

Take `CCN1CCN(c2c(CO)c(=O)oc3ccccc23)CC1`: the 50% inhibitory concentration (IC50) is above 100 µM in data set [1], above 50 µM in data set [2], above 50 µM in data set [3] and above 50 µM in data set [5]. Besides, in data set [4], the 50% cytotoxic concentration (CC50) at 24 h is above 50 µM.

On to `O=c1oc2ccccc2c(N2CCN(C(c3ccccc3)c3ccc(Cl)cc3)CC2)c1CO` (centres undefined), for which the IC50 in data set [1] was 30.2 µM; in data set [2] it was 0.92 µM; in data set [3] it was 3.89 µM; in data set [5], 2.74 µM. Moreover, the CC50 at 24 h in data set [4] was above 50 µM.

In the case of `O=c1oc2ccccc2c(N2CCN(c3cccc(C(F)(F)F)c3)CC2)c1CO`, the IC50 was above 50 µM in data set [1], 24.2 µM in data set [2], 31.9 µM in data set [3] and 30 µM in data set [5]. Also, the CC50 at 24 h in data set [4] is above 50 µM.

On to `O=c1oc2ccccc2c(N2CCN(c3ccccc3)CC2)c1CO`, for which the IC50 is above 50 µM in data set [1], 8.93 µM in data set [2], 17.2 µM in data set [3] and 16.6 µM in data set [5]. For the same molecule, the CC50 at 24 h in data set [4] was above 50 µM.

Regarding `COc1ccccc1N1CCN(c2c(CO)c(=O)oc3ccccc23)CC1`, the concentration for half-maximal inhibition (IC50) was above 50 µM in data set [1], 10.1 µM in data set [2], 20 µM in data set [3] and 18.3 µM in data set [5]. Moreover, in data set [4], the CC50 at 24 h is above 50 µM.

In the case of `O=c1oc2ccccc2c(N2CCN(c3cccc(Cl)c3)CC2)c1CO`, the IC50 is above 50 µM in data set [1], 33.5 µM in data set [2], 40.5 µM in data set [3] and 46.3 µM in data set [5]. Moreover, the CC50 at 24 h in data set [4] was above 50 µM.

On to `CCCS(=O)(=O)Nc1ccc(F)c(C(=O)c2c[nH]c3ncc(-c4ccc(Cl)cc4)cc23)c1F` [VEMURAFENIB], for which the results for the half-maximal inhibitory concentration (IC50) in data set [1], in data set [3] and in data set [5] were 1.86 µM, 0.21 µM and 0.07 µM, respectively. Further, the cytotoxic concentration (CC50) at 24 h in data set [4] is above 50 µM.

Regarding `O=c1oc2ccccc2c(N2CCN(c3ccc(F)cc3)CC2)c1CO`, the 50% inhibitory concentration (IC50) in data set [1] was above 50 µM; in data set [2], 17.8 µM; in data set [3] it was 24.7 µM; in data set [5] it was 23.4 µM. Besides, in data set [4], the CC50 at 24 h is above 50 µM.

`O=c1oc2ccccc2c(N2CCN(c3ccccc3F)CC2)c1CO`: the IC50 in data set [1] is above 50 µM; in data set [2] it was 22 µM; in data set [3] it was 32.1 µM; in data set [5] it was 37.6 µM. Further, in data set [4], the CC50 at 24 h is above 50 µM.

Consider `O=c1oc2ccccc2c(N2CCN(c3cccc(Cl)c3Cl)CC2)c1CO`, for which the IC50 came to 45.9 µM in data set [1], 3.27 µM in data set [2], 8.45 µM in data set [3] and 6.56 µM in data set [5]. In addition, the 50% cytotoxic concentration (CC50) at 24 h in data set [4] was above 50 µM.

Regarding `COc1ccc(N2CCN(c3c(CO)c(=O)oc4ccccc34)CC2)cc1`, the IC50 in data set [1] came to 40.4 µM; in data set [2], 1.84 µM; in data set [3], 7.23 µM; in data set [5], 5.61 µM. For the same molecule, the cytotoxic concentration (CC50) at 24 h in data set [4] is above 50 µM.

Consider `COc1cccc(N2CCN(c3c(CO)c(=O)oc4ccccc34)CC2)c1`, for which the IC50 was 38.1 µM in data set [1], 1.76 µM in data set [2], 6.51 µM in data set [3] and 5.33 µM in data set [5]. In addition, the 50% cytotoxic concentration (CC50) at 24 h in data set [4] was above 50 µM.

On to `O=c1oc2ccccc2c(N2CCN(c3ccc(Cl)c(Cl)c3)CC2)c1CO`, for which the IC50 was 42.7 µM in data set [1], 2.56 µM in data set [2], 7.66 µM in data set [3] and 6.04 µM in data set [5]. In addition, the cytotoxic concentration (CC50) at 24 h in data set [4] was above 50 µM.
